This is an account of results in US20150164875A1, “Compound Preparation of Lercanidipine and Atorvastatin” (ZHAOKE PHARMACEUTICAL (GUANGZHOU) COMPANY LIMITED, priority 2012, published 2015).

Assay [1] deals with SD rats with hypertension accompanied by dyslipidemia. The experiment in a line: Decrease in systolic pressure in experimental (renal artery clip) rats with hypertension accompanied by dyslipidemia (Example 5). In kind it is in vivo, rat. Conditions: for Degree of antihypertension: gavage once a day, 20 weeks, systolic pressure before minus after administration, Mean ± SD; for systolic pressure as compared with the solvent control group (in words): end of week 20, lercanidipine 0.5 mg/kg, atorvastatin 1.0 mg/kg, compound 0.5 mg/kg+0.5/1.0/2.0 mg/kg, positive control 0.5 mg/kg+1.0 mg/kg. The method, then: SD rats, weighing 150-180 g, were anaesthetized by intraperitoneal injection with chloral hydrate (320 mg/kg). The abdominal cavity was opened, and the left renal artery was separated and was restricted with 0.2 mm silver clip. At 8-10 weeks following the procedure, rats with systolic pressure ≧140 mmHg were recognized as hypertension rats. Rats with hypertension were administered with vitamin D3 by gavage in a total dosage of 600,000 U/kg in three days, and then were fed with high-fat diet every day (cholesterol 1.0%, propylthiouracil 0.2%, sodium cholate 0.5%, lard 5.0%, methionine 1.0%, basal diet 92.3%). Rats in normal control group were fed with normal diet. After four weeks, systolic pressure was measured in rats, serum total cholesterol (TC) and triglyceride (TG) levels were determined by taking blood from tail vein.
(§1) 140 rats with hypertension accompanied by dyslipidemia were evenly divided into 7 groups with 20 rats in each group according to blood pressure and lipid levels, which were respectively solvent control group, lercanidipine group (lercanidipine hydrochloride, 0.5 mg/kg), atorvastatin group (atorvastatin calcium, 1.0 mg/kg), lercanidipine/atorvastatin compound group 1 (lercanidipine hydrochloride+atorvastatin calcium, 0.5 mg/kg+0.5 mg/kg), lercanidipine/atorvastatin compound group 2 (lercanidipine hydrochloride+atorvastatin calcium, 0.5 mg/kg+1.0 mg/kg), lercanidipine/atorvastatin compound group 3 (lercanidipine hydrochloride+atorvastatin calcium, 0.5 mg/kg+2.0 mg/kg), and positive control group (amlodipine besylate+atorvastatin calcium, 0.5 mg/kg+1.0 mg/kg).
(§2) Another 20 normal rats served as normal control group. Rats with hypertension were continued to be fed with the high-fat diet, and rats in normal group were fed with normal diet. Each group of drugs was formulated with physiological saline, and for the normal control group and solvent control group rats, same volume of physiological saline were administered. Rats were administered by gavage once a day for 20 consecutive weeks. Rats were weighed once a week, and the dosage was adjusted based on the weight. Blood pressures in different time points before and after administration were measured respectively to calculate the magnitude of the decrease in blood pressure (systolic pressure before administration−systolic pressure after administration). Rats were sampled 20 weeks later, and the serum total cholesterol (TC) and triglyceride (TG) levels were determined. The corresponding parameters for each group were represented with the mean±standard deviation (Mean±SD), and t-test was used to compare different groups.

Assay [2] relates to rats with spontaneous hypertension (adult MHS rats) fed with high fat diet. The experiment in a line: Total serum cholesterol in rats with spontaneous hypertension accompanied by dyslipidemia (Example 4). In kind it is in vivo, rat. Conditions: for total cholesterol: B 0.4 mg/kg, C 0.8 mg/kg, D 0.4 mg/kg+0.8 mg/kg, Mean ± SD; for change in total cholesterol (in words): over 4 weeks of administration, C and D p<0.05, B p>0.05. On the procedure: (§3) 5-month-old rats with spontaneous hypertension (adult MHS rats), half males and half females, were fed with high fat diet every day (1.0% of cholesterol, 0.2% of propylthiouracil, 0.5% of sodium cholate, 5.0% of lard, 1.0% of methionine and 92.3% of basal diet) for four weeks; after four weeks, the basal systolic pressure and lipid levels in rats weighing 200-240 g were determined. Rats with hypertension accompanied with dyslipidemia were evenly divided into 4 groups with 12 rates in each group. The four groups were respectively as follows: solvent control group (A), lercanidipine group (lercanidipine hydrochloride, 0.4 mg/kg) (B), atorvastatin group (atorvastatin calcium, 0.8 mg/kg) (C), and lercanidipine/atorvastatin compound group (lercanidipine hydrochloride+atorvastatin calcium, 0.4 mg/kg+0.8 mg/kg) (D). Each group of drugs was formulated with physiological saline, and were administered to rats by gavage once a day for 4 consecutive weeks. Rats were measured 2 hours after administration at the end of each week for the systolic pressure and total serum cholesterol levels and so on.

The test system is the same in assay [3]. The experiment in a line: Systolic pressure in rats with spontaneous hypertension accompanied by dyslipidemia (Example 4). Conditions: for systolic pressure: B 0.4 mg/kg, C 0.8 mg/kg, D 0.4 mg/kg+0.8 mg/kg, Mean ± SD. In kind it is in vivo, rat. On the procedure:
as §3

For assay [4], the system named is SD rats with hypertension accompanied by dyslipidemia. The experiment in a line: Serum TC and TG in experimental rats with hypertension accompanied by dyslipidemia (Example 5). Conditions: for TC / TG: gavage once a day, serum after 20 weeks, Mean ± SD; for TC and TG as compared with the solvent control group (in words): end of week 20, lercanidipine 0.5 mg/kg, atorvastatin 1.0 mg/kg, compound 0.5 mg/kg+0.5/1.0/2.0 mg/kg, positive control 0.5 mg/kg+1.0 mg/kg. In kind it is in vivo, rat. The method, then: SD rats, weighing 150-180 g, were anaesthetized by intraperitoneal injection with chloral hydrate (320 mg/kg). The abdominal cavity was opened, and the left renal artery was separated and was restricted with 0.2 mm silver clip. […] Rats in normal control group were fed with normal diet. After four weeks, systolic pressure was measured in rats, serum total cholesterol (TC) and triglyceride (TG) levels were determined by taking blood from tail vein.
as §1, §2

For assay [5] the following is noted: cited from earlier work.
Setting [6] is: 0 week (basal, before administration).
The mark [7] stands for this setting: 1 week, 2 hours after administration, gavage once a day.
[8] abbreviates: 2 weeks, 2 hours after administration, gavage once a day.
Where [9] appears, read: 3 weeks, 2 hours after administration, gavage once a day.
[10] abbreviates: 4 weeks, 2 hours after administration, gavage once a day.

Structures can show the parent of a compound that is named as a salt. Where two headings read alike, the source gives them in different places.

In assay [1] (dosage 0.5 mg/kg), `COC(=O)C1=C(C)NC(C)=C(C(=O)OC(C)(C)CN(C)CCC(c2ccccc2)c2ccccc2)C1c1cccc([N+](=O)[O-])c1` (stereo not drawn) [Group B, lercanidipine hydrochloride] registered a Degree of antihypertension of 35.8 ± 9.65 mmHg. In addition, the “systolic pressure as compared with the solvent control group (in words)” value in assay [1] is listed as “significantly decreased”. Besides, the total cholesterol in assay [2] (setting [6]) amounted to 8.49 ± 3.01 mmol/L; in assay [2] (1 week, gavage once a day) it was 7.95 ± 2.48 mmol/L; in assay [2] (2 weeks, gavage once a day), 7.55 ± 1.94 mmol/L; in assay [2] (3 weeks, gavage once a day), 7.28 ± 1.76 mmol/L; in assay [2] (4 weeks, gavage once a day), 7.01 ± 1.77 mmol/L. Also, the “change in total cholesterol (in words)” value in assay [2] is recorded as “decreased”. For the same compound, the systolic pressure in assay [3] (setting [6]) was 162 ± 4.1 mmHg; in assay [3] (setting [7]), 158 ± 3.7 mmHg; in assay [3] (setting [8]), 149 ± 5.1 mmHg; in assay [3] (setting [9]) it was 138 ± 3.4 mmHg; in assay [3] (setting [10]) it was 135 ± 2.5 mmHg. The “change in systolic pressure (in words)” value in assay [3] (over 4 weeks of administration, p<0.01) is “decreased to normal blood pressure levels”. In addition, the TC in assay [4] (dosage 0.5 mg/kg) turned out to be 8.27 ± 2.96 mmol/L. The compound further came in with a TG in assay [4] (dosage 0.5 mg/kg) of 2.43 ± 1.21 mmol/L. Further, the “TC and TG as compared with the solvent control group (in words)” value in assay [4] is listed as “improved”.
`CC(C)c1c(C(=O)Nc2ccccc2)c(-c2ccccc2)c(-c2ccc(F)cc2)n1CC[C@@H](O)C[C@@H](O)CC(=O)[O-].CC(C)c1c(C(=O)Nc2ccccc2)c(-c2ccccc2)c(-c2ccc(F)cc2)n1CC[C@@H](O)C[C@@H](O)CC(=O)[O-].[Ca+2]` [Group C, atorvastatin calcium]: in assay [1] (dosage 1.0 mg/kg), the Degree of antihypertension was found to be 2.4 ± 1.98 mmHg. The “systolic pressure as compared with the solvent control group (in words)” value in assay [1] is reported as “improved”. The total cholesterol in assay [2] (setting [6]) came to 8.75 ± 2.65 mmol/L; in assay [2] (1 week, gavage once a day), 7.51 ± 1.79 mmol/L; in assay [2] (2 weeks, gavage once a day), 6.67 ± 2.03 mmol/L; in assay [2] (3 weeks, gavage once a day) it was 6.15 ± 1.47 mmol/L; in assay [2] (4 weeks, gavage once a day), 5.72 ± 1.48 mmol/L. Further, the “change in total cholesterol (in words)” value in assay [2] was “significant”. The systolic pressure in assay [3] (setting [6]) stood at 160 ± 5.3 mmHg; in assay [3] (setting [7]), 166 ± 2.9 mmHg; in assay [3] (setting [8]), 161 ± 5.1 mmHg; in assay [3] (setting [9]), 159 ± 4.2 mmHg; in assay [3] (setting [10]) it was 158 ± 3.7 mmHg. In addition, the lipid-lowering effect improved in assay [5] (comparing with the same dose of lovastatin) is reported as 51%; in assay [5] (comparing with the same dose of pravastatin) it was 46%; in assay [5] (comparing with the same dose of simvastatin), 38%. The TC in assay [4] (dosage 1.0 mg/kg) was determined as 5.27 ± 4.03 mmol/L. The compound further yielded a TG in assay [4] (dosage 1.0 mg/kg) of 1.49 ± 0.74 mmol/L. Besides, the “TC and TG as compared with the solvent control group (in words)” value in assay [4] is reported as “significantly decreased”.
